How the values were obtained:
Human GLP-1 receptors = Human GLP-1 receptors (Homo sapiens, UniProt P43220); test: GLP-1 receptor activation assay (CRE-luciferase reporter, CHO-K1)
Experimental: Then, the resulting increased luciferase activity was evaluated as a measurement of the effect on each receptor activation.
After 3 hours of transfection, medium was exchanged to Alpha Minimal Essential Medium (α-MEM) comprising 10% fetal bovine serum (FBS). Next day, the medium was exchanged to α-MEM comprising the analog of the present invention and 0.1% bovine serum albumin (BSA). After 6 hours, dual luciferase assay reagent was added in the same amount as the medium in which the cells were submerged, and firefly luciferase and Renilla luciferase activities were continuously measured. Firefly luciferase activity values were corrected against Renilla luciferase activity to yield transfection efficiency.

Human glucagon receptors = Human glucagon receptors (Homo sapiens, UniProt P47871); test: Glucagon receptor activation assay (CRE-luciferase reporter, CHO-K1)
Sequence of Human glucagon receptors (P47871 26-477): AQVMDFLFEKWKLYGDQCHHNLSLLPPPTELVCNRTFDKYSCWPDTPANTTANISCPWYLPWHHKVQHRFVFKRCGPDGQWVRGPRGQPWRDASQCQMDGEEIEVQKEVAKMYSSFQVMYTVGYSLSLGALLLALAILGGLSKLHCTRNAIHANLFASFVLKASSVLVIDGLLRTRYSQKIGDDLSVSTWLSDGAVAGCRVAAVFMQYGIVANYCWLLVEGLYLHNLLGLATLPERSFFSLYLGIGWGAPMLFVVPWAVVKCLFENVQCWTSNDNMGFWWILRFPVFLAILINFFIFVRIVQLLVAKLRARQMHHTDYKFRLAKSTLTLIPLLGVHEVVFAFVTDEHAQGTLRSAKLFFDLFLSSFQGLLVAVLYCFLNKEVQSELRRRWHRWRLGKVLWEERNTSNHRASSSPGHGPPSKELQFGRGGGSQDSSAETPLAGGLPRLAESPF

Sequence of Human GLP-1 receptors (P43220 24-463): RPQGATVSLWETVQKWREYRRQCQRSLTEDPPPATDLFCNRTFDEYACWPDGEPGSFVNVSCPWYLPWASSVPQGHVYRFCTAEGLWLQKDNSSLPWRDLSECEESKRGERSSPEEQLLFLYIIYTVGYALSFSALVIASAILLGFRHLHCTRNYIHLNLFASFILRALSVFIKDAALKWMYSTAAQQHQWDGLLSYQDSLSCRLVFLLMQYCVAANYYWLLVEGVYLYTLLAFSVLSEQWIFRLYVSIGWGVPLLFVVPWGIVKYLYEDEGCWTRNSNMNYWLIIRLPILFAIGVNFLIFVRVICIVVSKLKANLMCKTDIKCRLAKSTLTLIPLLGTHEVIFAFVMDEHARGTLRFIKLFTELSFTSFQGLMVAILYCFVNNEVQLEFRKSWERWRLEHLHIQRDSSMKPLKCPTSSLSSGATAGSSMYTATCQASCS

SMILES	EC50 (Human GLP-1 receptors)	EC50 (Human glucagon receptors)
CCCCCCCCCCCCCCCCCC(=O)N[C@@H](CCC(=O)NCCOCCOCC(=O)NCCOCCOCC(=O)NCCCC[C@H](NC(=O)[C@H](CC(=O)O)NC(=O)[C@H](CO)NC(=O)[C@@H](NC(=O)[C@H](Cc1ccccc1)NC(=O)[C@@H](NC(=O)CNC(=O)[C@H](CCC(N)=O)NC(=O)C(C)(C)NC(=O)[C@@H](N)Cc1c[nH]cn1)[C@@H](C)O)[C@@H](C)O)C(=O)N[C@@H](CO)C(=O)N[C@@H](CCCCN)C(=O)N[C@@H](Cc1ccc(O)cc1)C(=O)N[C@@H](CC(C)C)C(=O)N[C@@H](CC(=O)O)C(=O)N[C@H]1CCCCNC(=O)C[C@@H](C(=O)N[C@@H](CC(=O)O)C(=O)N[C@@H](Cc2ccccc2)C(=O)N[C@H](C(=O)N[C@@H](CCC(N)=O)C(=O)N[C@@H](Cc2c[nH]c3ccccc23)C(=O)N[C@@H](CC(C)C)C(=O)N[C@@H](CCSC)C(=O)N[C@@H](CC(N)=O)C(=O)N[C@H](C(=O)N[C@@H](CCCCN)C(=O)O)[C@@H](C)O)C(C)C)NC(=O)[C@H](C)NC(=O)[C@H](CCCNC(=N)N)NC(=O)[C@H](CCCNC(=N)N)NC1=O)C(=O)O [Compound 27, H-HAibQGTFTSDZSKYLDKRRADDFVQWLMNTK-OH]	< 0.01 nM	< 0.01 nM
CCCCCCCCCCCCCCCCCC(=O)N[C@@H](CCC(=O)NCCOCCOCC(=O)NCCOCCOCC(=O)NCCCC[C@H](NC(=O)[C@H](CC(=O)O)NC(=O)[C@H](CO)NC(=O)[C@@H](NC(=O)[C@H](Cc1ccccc1)NC(=O)[C@@H](NC(=O)CNC(=O)[C@H](CCC(N)=O)NC(=O)C(C)(C)NC(=O)[C@@H](N)Cc1c[nH]cn1)[C@@H](C)O)[C@@H](C)O)C(=O)N[C@@H](CO)C(=O)N[C@@H](CCCCN)C(=O)N[C@@H](Cc1ccc(O)cc1)C(=O)N[C@@H](CC(C)C)C(=O)N[C@@H](CC(=O)O)C(=O)N[C@H]1CSSC[C@@H](C(=O)N[C@@H](CC(=O)O)C(=O)N[C@@H](Cc2ccccc2)C(=O)N[C@H](C(=O)N[C@@H](CCC(N)=O)C(=O)N[C@@H](Cc2c[nH]c3ccccc23)C(=O)N[C@@H](CC(C)C)C(=O)N[C@@H](CCSC)C(=O)N[C@@H](CC(N)=O)C(=O)N[C@H](C(=O)N[C@@H](CCCCN)C(=O)O)[C@@H](C)O)C(C)C)NC(=O)[C@H](C)NC(=O)[C@H](CCCNC(=N)N)NC(=O)[C@H](CCCNC(=N)N)NC1=O)C(=O)O [Compound 28, H-HAibQGTFTSDZSKYLDCRRACDFVQWLMNTK-OH]	0.1 to 1 nM	0.1 to 1 nM
CCCCCCCCCCCCCCCCCC(=O)N[C@@H](CCC(=O)NCCOCCOCC(=O)NCCOCCOCC(=O)NCCCC[C@H](NC(=O)[C@H](CC(=O)O)NC(=O)[C@H](CO)NC(=O)[C@@H](NC(=O)[C@H](Cc1ccccc1)NC(=O)[C@@H](NC(=O)CNC(=O)[C@H](CCC(N)=O)NC(=O)C(C)(C)NC(=O)[C@@H](N)Cc1c[nH]cn1)[C@@H](C)O)[C@@H](C)O)C(=O)N[C@@H](CO)C(=O)N[C@@H](CCCCN)C(=O)N[C@@H](Cc1ccc(O)cc1)C(=O)N[C@@H](CC(C)C)C(=O)N[C@@H](CC(=O)O)C(=O)N[C@H]1CCC(=O)NCCNC(=O)CC[C@@H](C(=O)N[C@@H](CC(=O)O)C(=O)N[C@@H](Cc2ccccc2)C(=O)N[C@H](C(=O)N[C@@H](CCC(N)=O)C(=O)N[C@@H](Cc2c[nH]c3ccccc23)C(=O)N[C@@H](CC(C)C)C(=O)N[C@@H](CCSC)C(=O)N[C@@H](CC(N)=O)C(=O)N[C@H](C(=O)N[C@@H](CCCCN)C(=O)O)[C@@H](C)O)C(C)C)NC(=O)[C@H](C)NC(=O)[C@H](CCCNC(=N)N)NC(=O)[C@H](CCCNC(=N)N)NC1=O)C(=O)O [Compound 30, H-HAibQGTFTSDZSKYLDERRAEDFVQWLMNTK-OH]	< 0.01 nM	< 0.01 nM
